Data on seven compounds can be found in ChEMBL document CHEMBL1127434, “Discovery of nanomolar ligands for 7-transmembrane G-protein-coupled receptors from a diverse N-(substituted)glycine peptoid library” (J Med Chem, 1994).

In assay [1] the target is Mu-type opioid receptor (Rattus norvegicus, UniProt P33535). As to the kind of experiment: Compound was evaluated for binding affinity towards mu-specific opiate receptor from rat brain membrane using [3H]DAMGO.
For assay [2], the target named is T1, Adrenergic receptor alpha-1 (Rattus norvegicus, UniProt P15823+P23944+P43140).
T1 sequence (P15823 whole entry): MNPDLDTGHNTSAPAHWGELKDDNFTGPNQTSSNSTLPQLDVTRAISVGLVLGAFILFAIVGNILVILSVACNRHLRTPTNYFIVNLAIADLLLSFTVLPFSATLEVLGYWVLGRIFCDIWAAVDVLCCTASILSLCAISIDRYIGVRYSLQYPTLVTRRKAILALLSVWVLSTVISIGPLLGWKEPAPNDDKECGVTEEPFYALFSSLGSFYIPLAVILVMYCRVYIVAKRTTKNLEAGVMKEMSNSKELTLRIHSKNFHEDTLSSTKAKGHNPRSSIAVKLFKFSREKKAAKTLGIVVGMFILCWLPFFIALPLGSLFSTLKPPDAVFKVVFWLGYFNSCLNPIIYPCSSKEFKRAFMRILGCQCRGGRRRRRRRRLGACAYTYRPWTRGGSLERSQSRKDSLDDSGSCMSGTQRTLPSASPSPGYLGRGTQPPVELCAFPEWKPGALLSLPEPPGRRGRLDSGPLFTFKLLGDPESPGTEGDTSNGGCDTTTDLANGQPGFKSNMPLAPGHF
T1 sequence (P23944 whole entry): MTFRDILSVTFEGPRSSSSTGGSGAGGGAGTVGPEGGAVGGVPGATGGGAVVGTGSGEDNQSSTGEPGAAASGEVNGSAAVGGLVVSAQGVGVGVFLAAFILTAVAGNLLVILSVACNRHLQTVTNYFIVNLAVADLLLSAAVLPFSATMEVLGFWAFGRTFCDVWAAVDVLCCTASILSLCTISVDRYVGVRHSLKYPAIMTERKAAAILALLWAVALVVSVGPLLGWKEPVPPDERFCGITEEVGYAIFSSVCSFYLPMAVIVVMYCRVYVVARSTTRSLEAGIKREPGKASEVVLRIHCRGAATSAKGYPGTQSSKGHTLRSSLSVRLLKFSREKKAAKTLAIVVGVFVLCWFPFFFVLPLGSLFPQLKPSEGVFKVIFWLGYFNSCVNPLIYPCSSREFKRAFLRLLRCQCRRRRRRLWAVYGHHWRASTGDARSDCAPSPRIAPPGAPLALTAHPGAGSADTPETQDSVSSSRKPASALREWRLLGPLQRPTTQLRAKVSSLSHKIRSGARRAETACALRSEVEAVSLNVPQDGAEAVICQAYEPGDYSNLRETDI
T1 sequence (P43140 whole entry): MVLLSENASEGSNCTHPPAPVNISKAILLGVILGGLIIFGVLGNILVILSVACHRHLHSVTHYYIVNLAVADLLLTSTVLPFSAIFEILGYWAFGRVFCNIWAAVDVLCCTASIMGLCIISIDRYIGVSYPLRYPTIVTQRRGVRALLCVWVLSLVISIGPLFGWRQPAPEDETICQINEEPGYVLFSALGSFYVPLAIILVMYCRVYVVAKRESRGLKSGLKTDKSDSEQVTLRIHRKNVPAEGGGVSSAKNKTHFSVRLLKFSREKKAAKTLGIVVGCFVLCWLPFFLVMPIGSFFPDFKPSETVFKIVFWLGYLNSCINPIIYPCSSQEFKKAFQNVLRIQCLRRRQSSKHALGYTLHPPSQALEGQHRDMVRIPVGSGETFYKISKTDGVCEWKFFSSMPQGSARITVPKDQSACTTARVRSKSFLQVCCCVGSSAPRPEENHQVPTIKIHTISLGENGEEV
Kind of assay: Compound was evaluated for its binding affinity against alfa1 adrenergic receptors. The format is protein assay.

The target of assay [3] is T1, Adrenergic receptor alpha-1.
Description: Compound was evaluated for binding affinity towards alpha-1 adrenergic receptors from combinatorial peptoid library
The target is the same in assay [4]. As to the kind of experiment: Compound was evaluated for its binding affinity against alpha-1 adrenergic receptors. The format is protein assay.

Mu-type opioid receptor, sequence (P33535 whole entry): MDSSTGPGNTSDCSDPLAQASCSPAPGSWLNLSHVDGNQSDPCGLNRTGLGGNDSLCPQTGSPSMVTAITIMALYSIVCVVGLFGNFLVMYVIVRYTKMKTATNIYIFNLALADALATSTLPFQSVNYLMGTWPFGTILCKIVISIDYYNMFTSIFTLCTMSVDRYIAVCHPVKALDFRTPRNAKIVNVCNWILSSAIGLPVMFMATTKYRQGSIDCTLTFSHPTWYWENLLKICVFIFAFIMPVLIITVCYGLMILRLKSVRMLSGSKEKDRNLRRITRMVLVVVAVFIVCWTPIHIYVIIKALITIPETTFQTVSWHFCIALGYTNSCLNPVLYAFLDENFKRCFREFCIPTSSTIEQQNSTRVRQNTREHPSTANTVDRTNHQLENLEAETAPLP

For `COc1ccc(CN(CC(=O)N(CCc2ccc(O)cc2)CC(N)=O)C(=O)CNCC(c2ccccc2)c2ccccc2)cc1OC`, the affinity in assay [1], expressed as Ki, was 31 nM.
As to `CCCCCN(CC(=O)N(CCc1ccc(O)cc1)CC(N)=O)C(=O)CNCC(c1ccccc1)c1ccccc1`, in assay [1], the inhibitory constant (Ki) (in general, the equilibrium dissociation constant of an inhibitor or competing ligand from its target) came to 46 nM.
For the compound `NC(=O)CN(CCc1ccccc1)C(=O)CN(C(=O)CNCCc1ccc(O)cc1)c1ccc(-c2ccccc2)cc1`, in assay [2], the Ki is 5 nM.
In assay [1], `NC(=O)CN(CCc1ccc(O)cc1)C(=O)CN(Cc1ccc2c(c1)OCO2)C(=O)CNCC(c1ccccc1)c1ccccc1` yielded a Ki of 6 nM.
`NC(=O)CN(CCc1ccccc1)C(=O)CN(C(=O)CNCCc1ccccc1)c1ccc(-c2ccccc2)cc1` gave a Ki in assay [3] of 4 nM. This lies in the single-digit nanomolar range.
`NC(=O)CN(C(=O)CN(C(=O)CNCCc1ccc(O)cc1)c1ccc(-c2ccccc2)cc1)c1ccc(-c2ccccc2)cc1` came in with a Ki in assay [4] of 310 nM.
`NC(=O)CN(CCc1ccccc1)C(=O)CN(C(=O)CNCCc1ccc(O)cc1)c1ccc(Oc2ccccc2)cc1` displayed a Ki in assay [4] of 140 nM. Against the preceding compound, the Ki is about 2.2-fold lower.
